What all share (assay type): ADME, organism-based
Holding throughout (set-up): dose 10 mg/kg, route intravenous

The nature of data set [1]: Cmax in CD1 mouse at 10 mg/kg, iv bid. Particulars: in vivo.
Data set [2] can be described thus: Half life in CD1 mouse at 10 mg/kg, iv bid. To be noted: in vivo.
Data set [3] in a line: AUC in CD1 mouse at 10 mg/kg, iv bid. Particulars: plasma.
Data set [4] in a line: Clearance in CD1 mouse at 10 mg/kg, iv bid. To be noted: in vivo.
Data set [5] in a line: Volume of distribution in CD1 mouse at 10 mg/kg, iv bid. Particulars: in vivo.

Results on 1 compound are retold here after ChEMBL document CHEMBL1255180, “Thieno[3,2-c]pyrazoles: a novel class of Aurora inhibitors with favorable antitumor activity” (Bioorg Med Chem, 2010).

On to `O=C(Nc1n[nH]c2cc(C(=O)N[C@H](CN3CCCC3)c3ccccc3)sc12)c1ccc(N2CCOCC2)cc1`, for which the Cmax (commonly the highest concentration seen after dosing) in data set [1] stood at 9 µM. The half-life – broadly, the time needed for the level to fall by half in the phase considered – in data set [2] was 7 h. Besides, in data set [3], the AUC – broadly, the area under the concentration-time curve, a measure of exposure – was found to be 9 µM·h. The clearance (commonly the volume of plasma or blood freed of the substance per unit of time) in data set [4] was 50 mL/min/kg. The Vd – broadly, a proportionality between amount in the body and measured concentration, not a real space – in data set [5] stood at 16 L/kg.
